Measured values from patent publication US9637496B2, “Substituted 7-azabicycles and their use as orexin receptor modulators” (priority 2013, dated 2017).
Where two headings read alike, the source gives them in different places.

How the values were obtained:
rat orexin 1 receptor = rat orexin 1 receptor (Rattus norvegicus (Rat), UniProt P56718); assay: Rat orexin 1 receptor radioligand binding (competitive binding, HEK293 membranes)
human orexin 1 receptor = human orexin 1 receptor (Homo sapiens (Human), UniProt O43613); assay: Human orexin 1 receptor radioligand binding (competitive binding, CHO membranes)
human orexin 2 receptor = human orexin 2 receptor (Homo sapiens (Human), UniProt O43614); assay: Human orexin 2 receptor radioligand binding ([3H]-EMPA competition, HEK293 membranes)
[1] = rat orexin 1 receptor, Table 2, averages from between 2-20 runs, read-out: rOX1 Ki
[2] = human orexin 1 receptor, Table 2, averages from between 2-20 runs, read-out: hOX1 Ki
[3] = human orexin 2 receptor, Table 2, averages from between 2-20 runs, read-out: hOX2 Ki

rat orexin 1 receptor, sequence (P56718 whole entry): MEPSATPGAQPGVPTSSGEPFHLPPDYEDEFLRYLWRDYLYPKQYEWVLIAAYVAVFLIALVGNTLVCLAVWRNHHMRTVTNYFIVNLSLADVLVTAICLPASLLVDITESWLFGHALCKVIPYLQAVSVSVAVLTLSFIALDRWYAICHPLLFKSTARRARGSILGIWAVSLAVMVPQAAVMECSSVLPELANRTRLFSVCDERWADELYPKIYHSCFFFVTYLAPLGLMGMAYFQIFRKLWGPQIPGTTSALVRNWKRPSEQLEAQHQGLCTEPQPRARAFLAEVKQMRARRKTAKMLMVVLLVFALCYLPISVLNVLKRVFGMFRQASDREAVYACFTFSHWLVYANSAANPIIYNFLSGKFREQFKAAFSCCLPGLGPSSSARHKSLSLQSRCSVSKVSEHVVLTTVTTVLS
human orexin 2 receptor, sequence (O43614 whole entry): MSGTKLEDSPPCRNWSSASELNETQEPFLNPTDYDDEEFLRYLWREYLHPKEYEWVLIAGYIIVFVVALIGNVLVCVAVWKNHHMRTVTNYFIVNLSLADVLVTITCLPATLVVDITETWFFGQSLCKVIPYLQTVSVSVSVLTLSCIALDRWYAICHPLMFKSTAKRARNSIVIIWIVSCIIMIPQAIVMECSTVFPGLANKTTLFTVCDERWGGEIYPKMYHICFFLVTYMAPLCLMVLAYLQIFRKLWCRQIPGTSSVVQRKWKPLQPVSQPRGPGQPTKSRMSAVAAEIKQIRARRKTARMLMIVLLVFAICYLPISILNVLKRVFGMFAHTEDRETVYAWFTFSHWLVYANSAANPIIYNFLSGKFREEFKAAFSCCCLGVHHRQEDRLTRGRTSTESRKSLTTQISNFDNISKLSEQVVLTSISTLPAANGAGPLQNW
human orexin 1 receptor, sequence (O43613 whole entry): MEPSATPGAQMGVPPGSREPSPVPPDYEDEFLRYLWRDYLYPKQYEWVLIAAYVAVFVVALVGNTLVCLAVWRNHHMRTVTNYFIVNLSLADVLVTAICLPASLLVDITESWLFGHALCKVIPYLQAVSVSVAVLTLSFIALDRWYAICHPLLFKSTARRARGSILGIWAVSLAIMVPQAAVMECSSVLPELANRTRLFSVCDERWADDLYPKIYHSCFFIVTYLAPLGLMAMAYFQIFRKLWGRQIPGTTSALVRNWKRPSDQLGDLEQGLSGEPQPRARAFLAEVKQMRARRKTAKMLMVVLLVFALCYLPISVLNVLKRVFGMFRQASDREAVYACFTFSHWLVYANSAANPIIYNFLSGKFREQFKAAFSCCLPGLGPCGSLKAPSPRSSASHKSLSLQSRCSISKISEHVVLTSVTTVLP

Compound | Ki (rat orexin 1 receptor; [1]) [nM] | Ki (human orexin 1 receptor; [2]) [nM] | Ki (human orexin 2 receptor; [3]) [nM] | Ki (rat orexin 1 receptor; read-out: rOX1 Ki) [nM] | Ki (human orexin 1 receptor; read-out: hOX1 Ki) [nM] | also measured
O=C(c1cccc(F)c1-c1ncccn1)N1[C@@H]2CC[C@H]1[C@H](Nc1ncc(C(F)(F)F)cc1Cl)C2 [Example 384, ((1S,2R,4R)-2-((3-chloro-5-(trifluoromethyl)pyridin-2-yl)amino)-7-azabicyclo[2.2.1]heptan-7-yl)(3-fluoro-2-(pyrimidin-2-yl)phenyl)methanone] | 15 | 12 | 612 | – | – | –
O=C(c1ccccc1-c1ncc(F)cn1)N1[C@@H]2CC[C@H]1[C@H](Nc1ncc(C(F)(F)F)cc1Cl)C2 [Example 385, ((1S,2R,4R)-2-((3-chloro-5-(trifluoromethyl)pyridin-2-yl)amino)-7-azabicyclo[2.2.1]heptan-7-yl)(2-(5-fluoropyrimidin-2-yl)phenyl)methanone] | – | – | 696 | 37 | 44 | –
O=C(c1ccccc1-c1ncccn1)N1[C@@H]2CC[C@H]1[C@H](Nc1ncc(C(F)(F)F)cc1Cl)C2 [Example 386, ((1S,2R,4R)-2-((3-chloro-5-(trifluoromethyl)pyridin-2-yl)amino)-7-azabicyclo[2.2.1]heptan-7-yl)(2-(pyrimidin-2-yl)phenyl)methanone] | 20 | 29 | 499 | – | – | –
O=C(c1ncccc1-c1ncccn1)N1[C@@H]2CC[C@H]1[C@H](Nc1ncc(C(F)(F)F)cc1Cl)C2 [Example 387, ((1S,2R,4R)-2-((3-chloro-5-(trifluoromethyl)pyridin-2-yl)amino)-7-azabicyclo[2.2.1]heptan-7-yl)(3-(pyrimidin-2-yl)pyridin-2-yl)methanone] | 40 | 33 | 1100 | – | – | –
O=C(c1cccc(F)c1-n1nccn1)N1[C@@H]2CC[C@H]1[C@H](Nc1ccc(C(F)F)cn1)C2 [Example 388, ((1S,2R,4R)-2-((5-(difluoromethyl)pyridin-2-yl)amino)-7-azabicyclo[2.2.1]heptan-7-yl)(3-fluoro-2-(2H-1,2,3-triazol-2-yl)phenyl)methanone] | 130 | 118 | 1100 | – | – | –
O=C(c1cccc(F)c1-c1ncccn1)N1[C@@H]2CC[C@H]1[C@H](Nc1ccc(C(F)F)cn1)C2 [Example 389, ((1S,2R,4R)-2-((5-(difluoromethyl)pyridin-2-yl)amino)-7-azabicyclo[2.2.1]heptan-7-yl)(3-fluoro-2-(pyrimidin-2-yl)phenyl)methanone] | 123 | 168 | 741 | – | – | –
N#Cc1ccc(N[C@@H]2C[C@H]3CC[C@@H]2N3C(=O)c2cccc(F)c2-n2nccn2)nc1 [Example 390, 6-(((1S,2R,4R)-7-(3-fluoro-2-(2H-1,2,3-triazol-2-yl)benzoyl)-7-azabicyclo[2.2.1]heptan-2-yl)amino)nicotinonitrile] | 1500 | 1400 | > 10000 | – | – | –
Cc1cccc(C(=O)N2[C@@H]3CC[C@H]2[C@H](Nc2ccc(C#N)cn2)C3)c1-n1nccn1 [Example 391, 6-(((1S,2R,4R)-7-(3-methyl-2-(2H-1,2,3-triazol-2-yl)benzoyl)-7-azabicyclo[2.2.1]heptan-2-yl)amino)nicotinonitrile] | 220 | 315 | 4400 | – | – | –
N#Cc1ccc(N[C@@H]2C[C@H]3CC[C@@H]2N3C(=O)c2cccc(F)c2-c2ncccn2)nc1 [Example 392, 6-(((1S,2R,4R)-7-(3-fluoro-2-(pyrimidin-2-yl)benzoyl)-7-azabicyclo[2.2.1]heptan-2-yl)amino)nicotinonitrile] | 1000 | 1400 | > 10000 | – | – | –
Cc1cccc(C(=O)N2[C@@H]3CC[C@H]2[C@H](Nc2ccc(C#N)cn2)C3)c1-c1ncccn1 [Example 393, 6-(((1S,2R,4R)-7-(3-methyl-2-(pyrimidin-2-yl)benzoyl)-7-azabicyclo[2.2.1]heptan-2-yl)amino)nicotinonitrile] | 500 | 323 | 8300 | – | – | –
Cc1cccc(C(=O)N2[C@@H]3CC[C@H]2[C@H](Nc2ccc(C#N)cn2)C3)c1-c1ncco1 [Example 394, 6-(((1S,2R,4R)-7-(3-methyl-2-(oxazol-2-yl)benzoyl)-7-azabicyclo[2.2.1]heptan-2-yl)amino)nicotinonitrile] | 187 | 250 | 2100 | – | – | –
[2H]C1(Nc2cnc(C(F)(F)F)cn2)CC2CCC1N2C(=O)c1cccc(F)c1-c1ncccn1 [Example 395, (3-fluoro-2-(pyrimidin-2-yl)phenyl)((1S,2R,4R)-(2-^2H)-((5-(trifluoromethyl)pyrazin-2-yl)amino)-7-azabicyclo[2.2.1]heptan-7-yl)methanone] | – | – | – | – | – | Ki (rat orexin 1 receptor): 17 nM; Ki (human orexin 1 receptor): 14 nM; Ki (human orexin 2 receptor): 899 nM
O=C(c1ccccc1-c1ncc(F)cn1)N1[C@@H]2CC[C@H]1[C@H](Nc1cnc(C(F)(F)F)cn1)C2 [Example 397, (2-(5-fluoropyrimidin-2-yl)phenyl)((1S,2R,4R)-2-((5-(trifluoromethyl)pyrazin-2-yl)amino)-7-azabicyclo[2.2.1]heptan-7-yl)methanone] | – | – | 985 | 50 | 24 | –
O=C(c1cccc(F)c1-c1ncc(F)cn1)N1[C@@H]2CC[C@H]1[C@H](Nc1cnc(C(F)(F)F)cn1)C2 [Example 398, (3-fluoro-2-(5-fluoropyrimidin-2-yl)phenyl)((1S,2R,4R)-2-((5-(trifluoromethyl)pyrazin-2-yl)amino)-7-azabicyclo[2.2.1]heptan-7-yl)methanone] | 61 | 81 | 2100 | – | – | –
Cc1cccc(C(=O)N2[C@@H]3CC[C@H]2[C@H](Nc2cnc(C(F)(F)F)cn2)C3)c1-c1ncc(F)cn1 [Example 399, (2-(5-fluoropyrimidin-2-yl)-3-methylphenyl)((1S,2R,4R)-2-((5-(trifluoromethyl)pyrazin-2-yl)amino)-7-azabicyclo[2.2.1]heptan-7-yl)methanone] | – | – | 300 | 10 | 9 | –
O=C(c1ccccc1-c1ncccn1)N1[C@@H]2CC[C@H]1[C@H](Nc1cnc(C(F)(F)F)cn1)C2 [Example 400, (2-(pyrimidin-2-yl)phenyl)((1S,2R,4R)-2-((5-(trifluoromethyl)pyrazin-2-yl)amino)-7-azabicyclo[2.2.1]heptan-7-yl)methanone] | – | – | 571 | 27 | 19 | –
Cc1cnc(-n2nccn2)c(C(=O)N2[C@@H]3CC[C@H]2[C@H](Nc2cnc(C(F)(F)F)cn2)C3)c1 [Example 401, (5-methyl-2-(2H-1,2,3-triazol-2-yl)pyridin-3-yl)((1S,2R,4R)-2-((5-(trifluoromethyl)pyrazin-2-yl)amino)-7-azabicyclo[2.2.1]heptan-7-yl)methanone] | 196 | 394 | > 10000 | – | – | –
Cc1ccc(-c2ncccn2)c(C(=O)N2[C@@H]3CC[C@H]2[C@H](Nc2cnc(C(F)(F)F)cn2)C3)n1 [Example 403, (6-methyl-3-(pyrimidin-2-yl)pyridin-2-yl)((1S,2R,4R)-2-((5-(trifluoromethyl)pyrazin-2-yl)amino)-7-azabicyclo[2.2.1]heptan-7-yl)methanone] | – | – | 431 | 88 | 67 | –
Cc1cnc(C(=O)N2[C@@H]3CC[C@H]2[C@H](Nc2cnc(C(F)(F)F)cn2)C3)c(-c2ncccn2)c1 [Example 405, (5-methyl-3-(pyrimidin-2-yl)pyridin-2-yl)((1S,2R,4R)-2-((5-(trifluoromethyl)pyrazin-2-yl)amino)-7-azabicyclo[2.2.1]heptan-7-yl)methanone] | – | – | – | 53 | 59 | Ki (human orexin 2 receptor; read-out: hOX2 Ki): > 10000 nM
O=C(c1ncccc1-c1ncccn1)N1[C@@H]2CC[C@H]1[C@H](Nc1cnc(C(F)(F)F)cn1)C2 [Example 406, (3-(pyrimidin-2-yl)pyridin-2-yl)((1S,2R,4R)-2-((5-(trifluoromethyl)pyrazin-2-yl)amino)-7-azabicyclo[2.2.1]heptan-7-yl)methanone] | 59 | 44 | 972 | – | – | –
O=C(c1ccccc1-c1ccccc1)N1[C@@H]2CC[C@H]1[C@H](Nc1cnc(C(F)(F)F)cn1)C2 [Example 407, [1,1′-biphenyl]-2-yl((1S,2R,4R)-2-((5-(trifluoromethyl)pyrazin-2-yl)amino)-7-azabicyclo[2.2.1]heptan-7-yl)methanone] | – | – | 104 | 18 | 17 | –
O=C(c1cccc(F)c1-c1ccccn1)N1[C@@H]2CC[C@H]1[C@H](Nc1cnc(C(F)(F)F)cn1)C2 [Example 408, (3-fluoro-2-(pyridin-2-yl)phenyl)((1S,2R,4R)-2-((5-(trifluoromethyl)pyrazin-2-yl)amino)-7-azabicyclo[2.2.1]heptan-7-yl)methanone] | – | – | 150 | 12 | 19 | –
O=C(c1cc(F)ccc1-c1ncco1)N1[C@@H]2CC[C@H]1[C@H](Nc1cnc(C(F)(F)F)cn1)C2 [Example 410, (5-fluoro-2-(oxazol-2-yl)phenyl)((1S,2R,4R)-2-((5-(trifluoromethyl)pyrazin-2-yl)amino)-7-azabicyclo[2.2.1]heptan-7-yl)methanone] | – | – | 1000 | 67 | 90 | –
O=C(c1c(F)cccc1-c1ncco1)N1[C@@H]2CC[C@H]1[C@H](Nc1cnc(C(F)(F)F)cn1)C2 [Example 411, (2-fluoro-6-(oxazol-2-yl)phenyl)((1S,2R,4R)-2-((5-(trifluoromethyl)pyrazin-2-yl)amino)-7-azabicyclo[2.2.1]heptan-7-yl)methanone] | – | – | 622 | 53 | 31 | –
Cc1noc(-c2cc(F)ccc2C(=O)N2[C@@H]3CC[C@H]2[C@H](Nc2cnc(C(F)(F)F)cn2)C3)n1 [Example 412, (4-fluoro-2-(3-methyl-1,2,4-oxadiazol-5-yl)phenyl)((1S,2R,4R)-2-((5-(trifluoromethyl)pyrazin-2-yl)amino)-7-azabicyclo[2.2.1]heptan-7-yl)methanone] | 126 | 329 | 4800 | – | – | –
